Test results taken from a melting point compilation (Tetko et al.; mined from patent text by program, amines drawn as free bases though some values may be those of a salt).

Compound | melting point
COc1cccc2c1SCC(=O)C2 | 60 °C
N#CN=c1ccccn1Cc1ccccc1 | 139 to 140 °C
Nc1ccc(-c2noc(-c3cnn4c(C(F)(F)F)cc(-c5ccc(F)c(F)c5)nc34)n2)cn1 | 262 °C
C1=C(c2cc3ccccc3[nH]2)CCN(CCC2Cc3ccccc3C2)C1 | 175 to 176 °C
Cc1cccc(-c2[nH]c(C(C)C)nc2-c2cccc(-c3ccoc3)c2)n1 | 74 to 78 °C
CCCOc1ccc(F)c2c(=O)c3ccccc3sc12 | 125 to 127 °C
COc1cccc(Nc2nc(NC(=O)C(C)(C)C)nc3[nH]c4ccccc4c23)c1 | 267 °C
CCn1c2ccccc2c2c3c(c(-c4ccccc4Cl)cc21)C(O)NC3=O (centres undefined) | 232 to 236 °C
O=C(O)CC1c2ncccc2S(=O)(=O)N1c1ccccc1 (centres undefined) | 123 to 128 °C
O=C(O)c1ccccc1NCCNc1ccccc1C(=O)O | 248 °C
CCCCc1ncc(/C=C(\Cc2cccs2)C(=O)O)n1Cc1ccc(C(=O)O)cc1[N+](=O)[O-] | 163 °C
Brc1cc(-c2c3ccccc3c(Br)c3sc4ccccc4c23)cc(Br)c1OCc1nnn[nH]1 | 243 to 245 °C
C#CCC(C)C(=O)N1c2ccccc2C(=O)Nc2cccnc21 (centres undefined) | 202 to 204 °C
C#Cc1cccc(Nc2ncnc3ccc(S(=O)(=O)n4ccc(C=CC(=O)Nc5ccccc5N)c4)cc23)c1 | 150 to 153 °C
Cc1ccc2c(n1)sc1c(=O)n(C)nnc12 | 169 to 171 °C
CCCCCN1C(=O)C2(COc3cc(F)c(F)cc32)c2ccccc21 (centres undefined) | 48 to 50 °C
Cc1cc(C)n(-c2ncc(Cl)c(NC3CCCCC3)n2)n1 | 90 to 99 °C
N#CC(C(=O)c1ccc(Cl)cc1)=C1CCCN1 | 156 to 158 °C
CCOC(=O)C(C)OCC#Cc1cc(Cl)ccc1NS(=O)(=O)c1ccc2ncsc2c1 (centres undefined) | 166 to 168 °C
CC(c1ccc(N(C)C)cc1)c1ccc(N(C)C)cc1 | 68 °C
C=C1CCC23OC2(C1)CC(C)C1C2CCC(O)C2(C)CCC13 (centres undefined) | 125 °C
OCC1OC(n2cnc3c(NCc4ccc(Br)cc4)ncnc32)C(O)C1O (centres undefined) | 179 °C
CC(=O)c1c(C)nc(C)c(C(=O)OCCC#N)c1-c1cccc([N+](=O)[O-])c1 | 85 °C

Compound | melting point
CC(C)(C)C(NC(=O)c1cccc(F)c1)Nc1c(Nc2cccnc2Cl)c(=O)c1=O (centres undefined) | 228 to 229 °C
O=C(O)COc1cc(Cl)ccc1C(=O)NCc1cccc(C(F)(F)F)c1 | 179 to 181 °C
CN1CC(=O)Nc2cccnc2C1=O | 272 to 274 °C
Cc1cc([N+](=O)[O-])c(NC(C)C)c([N+](=O)[O-])c1C | 69 to 70 °C
N#CC(Br)c1ccc(Cl)cc1 (centres undefined) | 46 to 49 °C
Cn1cc(-c2ccccc2)c(=O)c(-c2cccc(CC3CCCCC3)c2)c1 | 147 to 148 °C
Cc1cccc2c(=O)[nH]c(CCN3CCCC(O)C3)cc12 (centres undefined) | 180 to 181 °C
c1ccc2c(c1)-c1ccccc1C2CC1c2ccccc2-c2ccccc21 | 210 to 212 °C
Nc1nc(-c2ccnc(-c3ccc(C(=O)NC4CCOCC4)cc3)c2)c(-c2ccccn2)s1 | 268 °C
CC(C)(C)c1ccc(C(N)=O)cc1N | 140 to 142 °C
O=S1(=O)NC(C2CCCCC2)Nc2ccc(S(=O)(=O)N3CCOCC3)cc21 (centres undefined) | 262 to 264 °C
Cc1c(F)cc(C(=O)O)cc1-c1ccc(C(=O)NCC(C)(C)C)cc1C(=O)Nc1nccs1 | 196 to 200 °C
O=C(CC1CCN(CC2CC2)CC1)c1ccc(O)cc1 | 209 to 211 °C
OCCNc1nc(N2CCNCC2)nc2c1SCCC2 | 116 to 120 °C
COc1ccc(C2=NN(C3CCN(C(=O)CCSCCN)CC3)C(=O)[C@@H]3CC=CC[C@H]23)cc1OC | 137 to 139 °C
CS(=O)(=O)c1ccc(-c2sc(-c3ccccc3Cl)nc2-c2ccc(F)cc2F)cc1 | 166 to 169 °C
CS(=O)(=O)Nc1ccc(C=C2c3ccccc3CCc3ccccc32)cc1 | 211 °C
COc1c(C)cc2ccccc2c1C(CC(=O)O)C(=O)O (centres undefined) | 159 °C
COC(=O)C=Cc1cc(NC2CCN(Cc3ccccc3)CC2)ccc1C | 140 to 142 °C
O=S(=O)(Nc1ccc2c(OCc3csc(-c4ccc(F)cc4F)n3)cccc2c1)C(F)(F)F | 191 to 192 °C
O=C(Nc1ccc(-c2ccccc2)s1)c1ccccc1 | 202 to 203 °C
Cc1cc(-n2cccn2)c2cccc(OCc3c(Cl)ccc(S(=O)(=O)N4CCC[C@H]4CO)c3Cl)c2n1 | 65 °C
CC(C)C[C@H](NC1CCCCC1)C(=O)N1CCN(C(c2ccc(F)cc2)c2ccc(F)cc2)CC1 | 45 to 54 °C

Compound | melting point
Clc1ccccc1Oc1c(Cl)ncnc1Cl | 76 to 77 °C
O=CN1CCC(c2nn(-c3ccc(C(F)(F)F)cc3)c3ccccc23)CC1 | 109 to 111 °C
Cc1ncc(CNC(=O)c2ccc3n2Cc2ccccc2N(C(=O)CSc2ccc(Br)cc2)C3)c(CO)c1O | 199 to 200 °C
COC(=O)/C=C(\C)CSc1nc(N)cc(Cl)n1 | 134 to 136 °C
O=C(O)CN1C(=O)C(=CC=Cc2cccc(-c3ccccc3)c2)SC1=S | 232 to 237 °C
COc1cc(OC)nc(Oc2cccc(Oc3ccccc3)c2C(=O)O)n1 | 116 to 118 °C
O=C(c1cc2ccccc2[nH]1)N1CCOCC1Cl (centres undefined) | 254 to 255 °C
Cn1nc(N)c2c(c1=O)OCCNC2Cc1ccccc1 (centres undefined) | 195 to 196 °C
CCCc1c(OCCCOc2ccc(C(=O)O)cc2Br)ccc(C(C)=O)c1OC(C)=O | 125 to 127 °C
CCC(C)C1C(=O)NN(c2ccc(Cl)c(Cl)c2)C1=O (centres undefined) | 118 to 120 °C
CC(=O)OCCn1c(=O)sc2ccc(-c3nc4ccccn4c3C)cc21 | 113 to 115 °C
O=C(O)C1CCc2cc(C3CCCCCC3)c(Cl)cc21 (centres undefined) | 138 to 140 °C
CC(C)(CCCC(=O)O)c1cc(C(=O)O)c(O)c(C(C)(C)CCCC(=O)O)c1 | 161 to 163 °C
O=c1[nH]c(=O)n(Cc2cccc(OCc3noc(-c4ccc(C(F)(F)F)cc4)n3)c2)o1 | 90 to 91 °C
COc1ccnc(CCc2nc3cc(-c4ccc(S(N)(=O)=O)cc4)cnc3[nH]2)c1 | 216 to 218 °C
Cc1ccc(NC(=O)c2ccc(/C=C/C(=O)NO)s2)cc1Nc1nc(-c2cccnc2)cs1 | 242 °C
COc1cc(OC)nc(C(O)(C(=O)NS(C)(=O)=O)c2ccccc2)n1 (centres undefined) | 94 to 96 °C
CC[C@]1(C(=O)NCC=Cc2ccccc2F)[C@H](C)C1(Cl)Cl (relative stereo) | 103 to 105 °C
CC(C)(F)c1cnn2c(-c3ccc(F)c(-c4c(F)cccc4C#N)c3)cnc2n1 | 187 to 188 °C
C=CCOC(=O)c1c(C)c(OC)cc(O)c1C=O | 73 to 74 °C
CCc1cccc(CC)c1NC(=O)c1c(-c2ccccc2)oc(C)cc1=O | 186 to 189 °C
N#Cc1cc(CO)nc(C(=O)Nc2cccc(Cl)c2)c1 | 167 °C

Results, then the compound that gave them:

melting point | Compound
136 to 137 °C | CC(=O)CC(=O)C=Cc1ccc2[nH]ccc2c1
205 to 206 °C | N#Cc1cc([N+](=O)[O-])ccc1NC(=O)c1cccc([N+](=O)[O-])c1
130 °C | CCOP(=O)(OCC)c1ccc2c(c1)[C@@H](n1ccccc1=O)[C@H](O)C(C)(C)O2 (relative stereo)
185 to 186 °C | O=C(O)C1=Cc2cc(Oc3ccccc3)ccc2OC1C(F)(F)F (centres undefined)
156 to 157 °C | Cc1cccc(C2c3cc(NC(=O)CC(C)(C)C)c(C)c(C)c3OC2(C)C)c1 (centres undefined)
169 to 170 °C | O=C(Nc1cccc2c1C(=O)c1c-2n[nH]c1C1CCN(C(=O)C2CCCNC2)CC1)NN1CCOCC1 (centres undefined)
176 to 177 °C | CC(=O)Nc1cc(C(C)(C)CC(C)(C)C)ccc1O
111 to 115 °C | C[Si](C)(C)NC(=O)c1ccccc1
148 to 150 °C | N#Cc1ccccc1N1CCN(CNC(=O)c2ccccc2)CC1
85.5 to 87.5 °C | CC12CCCCC1CCC1C2CCC2(C)C(NCc3ccccc3)CCC12 (centres undefined)
210 to 212 °C | COC(=O)c1c(Cc2ccc(S(=O)(=O)N3CCN(C)CC3)cc2)c(=O)c2ccccc2n1-c1ccccc1
42 to 46 °C | COCN(c1c(C)ccc2ccccc12)C1COC(=O)C1 (centres undefined)
154 to 157 °C | Cc1ccc(S(=O)(=O)C(CC#Cc2ccc(Cl)cc2)C(=O)O)cc1 (centres undefined)
129 °C | COC(=O)c1ccc(C(=O)N2CCC(NC3CCOCC3)CC2)cc1
152 to 154 °C | CN(C)CCC(Cc1ccccc1C(=O)O)c1ccccc1 (centres undefined)
221 °C | Nc1nnc(-c2ccc(Cl)cc2)s1

melting point | Compound
200 to 202 °C | CC1CCN(c2ccc(C(=O)Nc3ccc4nc(CN5CCCC5)ccc4c3)cc2)CC1
108 to 110 °C | CC=CCC(O)(C(=O)c1ccccc1)C(=O)c1ccc(C(C)C)cc1 (centres undefined)
94 to 96 °C | CCOC(=O)C(O)=Cc1ccc(Cc2ccc(F)cc2)cn1
282 to 285 °C | CC(C)NC1=NS(=O)(=O)c2cc(F)c(Cl)cc2N1
110 to 113 °C | CC(Sc1cc(C(C)(C)C)c(O)c(C(C)(C)C)c1)C(=O)O (centres undefined)
169 to 170 °C | CCn1cc(C(=O)O)c(=O)c2cc(F)c(N3CCNC(COC)C3)cc21 (centres undefined)
108 to 110 °C | O=C(Cc1ccc(Cl)cc1)N1CCC2(CC1)Cc1ccccc1O2
130 °C | Cc1ccc(Oc2ccc(-c3ccc(Cl)cc3)cc2)cc1
73 to 75 °C | CC(C)Cc1nn(C)c(=O)c2cc(Cc3cccc4ccccc34)oc12
300 to 301 °C | Cc1cccc2nc3n(c(=O)c12)-c1ccc(F)cc1C3=O
199 to 201 °C | CN1CCN(Cc2ccc(-c3cc4ncc(C#N)c(Nc5ccc(Oc6ccccc6)cc5)c4s3)cc2)CC1
160 to 163 °C | NC(CSc1nc(NCc2ccc3c(c2)OCO3)cc(-c2ccccc2)n1)=NO
148 to 150 °C | CC[C@H]1CN(c2c(F)cc3c(=O)c(C(=O)O)cn(C4CC4)c3c2C)C[C@H]1N
176 to 177 °C | CC(=O)NCC1CC(c2ccc(-n3cccc3)c(F)c2)=NO1 (single isomer, unassigned; (-))
97 to 100 °C | CC(=O)c1cccc(C)c1NC(=O)CBr
